Laboratory results from BindingDB's records for patent US20240293587 (Technische University Munchen, 2024).
Starred links: 1 amine or outer side, 2 acyl side, 3 side chain; linkers in the order of their positions; H or OH if unused. Non-standard residues stand in square brackets, D forms with d. Residues, ends and D or L forms follow the SMILES beside them. Groups on a side chain read outwards from the residue. *: point of attachment. dAla(N-(6-guanidinohexyl)) = C[C@@H](NCCCCCCNC(=N)N)C(=O)O; X1 = C[C@H](C(=O)[*:2])N(CCCCCCNC(=N)NCCCCCCN[*:3])[*:1]; Propanoyl(3-PO3H2) = O=C(CCP(=O)(O)O)*; 2Nal = N[C@@H](Cc1ccc2ccccc2c1)C(=O)O; AEEA = NCCOCCOCC(=O)O; Ahx = NCCCCCC(=O)O

Each compound was assayed against C-X-C chemokine receptor type 4 (Homo sapiens, UniProt P61073) (assay: Competition Binding Assay).
Chain of C-X-C chemokine receptor type 4 (Homo sapiens, UniProt P61073) (P61073 whole entry): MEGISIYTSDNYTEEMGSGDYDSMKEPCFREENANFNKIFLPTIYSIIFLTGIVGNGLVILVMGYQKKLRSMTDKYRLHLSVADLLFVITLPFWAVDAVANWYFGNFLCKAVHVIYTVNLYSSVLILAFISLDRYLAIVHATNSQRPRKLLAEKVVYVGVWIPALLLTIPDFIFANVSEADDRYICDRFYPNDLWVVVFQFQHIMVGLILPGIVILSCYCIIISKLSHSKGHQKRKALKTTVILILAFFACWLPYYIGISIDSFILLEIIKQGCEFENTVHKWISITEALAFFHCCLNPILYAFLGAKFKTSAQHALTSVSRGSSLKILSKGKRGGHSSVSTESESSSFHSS
Experimental: (§1) For IC50 determination using Jurkat or Eμ-Myc1080 cells, samples containing 2×10^5 cells (or 4×10^5 cells; exact cell number used in the respective evaluations is given in the results section) in Hank's balanced salt solution (HBSS)/1% Bovine Serum Albumin (BSA) were incubated with 100.000 cpm of the respective radioligand (approx. 0.1 nM) in the presence of increasing concentrations (10−11 to 10−5 M) of the respective peptide of interest (n=3 per concentration). The total sample volume was 250 μL. After incubation at room temperature (RT) for 120 min with gentle agitation (200 mot/min), the tubes were centrifuged (5 min, 450g, Megafuge 1.0, Heraeus Thermo Scientific) and the supernatant was carefully removed. After washing twice with 400 μL of cold HBSS, the amount of cell-bound radioligand was quantified using a […]-counter.[0403]In the case of the adherent C6 glioma cells, cells were harvested using Trypsin/EDTA (0.05 % and 0.02%) in PBS one day prior to the experiment, centrifuged and resuspended with culture medium to a concentration of app. 150.000 cells/mL. The suspension was transferred into PLL-coated twenty-four-well plates (1 mL/well, Greiner, Solingen. Germany) and placed in the incubator overnight. On the day of the experiment, the culture medium was removed and the cells were washed with 250 μL of HBSS before being left to equilibrate in 200 μL of HBSS (1% BSA) at 37° C. for a minimum of 15 min before the experiment. Then, cells were incubated with 100.000 cpm of the respective radioligand (approx. 0.1 nM) in the presence of increasing concentrations (10−11 to 10−5 M) of the respective compound of interest (n=3 per concentration). The total sample volume was 250 μL. After incubation at room temperature (RT) for 120 min, the supernatant was removed and cells were washed twice with 200 μL of cold HBSS. Then, cells were lysed using 250 μL of 1 N NaOH, the lysate was transferred to vials and combined with 250 μL of HBSS used for rinsing the wells. Quantification of the amount of free and bound activity was performed in a […]-counter.

Row | IC50 [nM] | Structure (SMILES)
1 | 57 | CC(=O)NCCCCCCNC(=O)CSC[C@H]1NC(=O)[C@H](Cc2ccc3ccccc3c2)NC(=O)[C@H](CCCNC(=N)N)NC(=O)[C@@H](C)N(CCCCCCNC(=N)N)C(=O)[C@@H](Cc2ccc(O)cc2)NC1=O [US20240293587, Compound Pc2]
2 | 78.7 | CC(=O)NCCCCCC(=O)NC(=N)NCCCCCCN1C(=O)[C@@H](Cc2ccc(O)cc2)NC(=O)CNC(=O)[C@H](Cc2ccc3ccccc3c2)NC(=O)[C@H](CCCNC(=N)N)NC(=O)[C@H]1C [US20240293587, Compound P9]
3 | 3.1 | CC(=O)NCCNC(=N)NCCCCCCN1C(=O)[C@@H](Cc2ccc(O)cc2)NC(=O)CNC(=O)[C@H](Cc2ccc3ccccc3c2)NC(=O)[C@H](CCCNC(=N)N)NC(=O)[C@H]1C [US20240293587, Compound P1]
4 | 61 | CC(=O)N[C@@H](CCCCNC(=O)CSC[C@H]1NC(=O)[C@H](Cc2ccc3ccccc3c2)NC(=O)[C@H](CCCNC(=N)N)NC(=O)[C@@H](C)N(CCCCCCNC(=N)N)C(=O)[C@@H](Cc2ccc(O)cc2)NC1=O)C(N)=O [US20240293587, Compound Pc1]
5 | 13.2 | CC(=O)NCC(=O)NC(=N)NCCCCCCN1C(=O)[C@@H](Cc2ccc(O)cc2)NC(=O)CNC(=O)[C@H](Cc2ccc3ccccc3c2)NC(=O)[C@H](CCCNC(=N)N)NC(=O)[C@H]1C [US20240293587, Compound P8]
6 | 0.8 | C[C@@H]1C(=O)N[C@@H](CCCNC(=N)N)C(=O)N[C@@H](Cc2ccc3ccccc3c2)C(=O)NCC(=O)N[C@H](Cc2ccc(O)cc2)C(=O)N1CCCCCCNC(=N)N [US20240293587, Compound R] (cyclo([dY][dAla(N-(6-guanidinohexyl))]R[2Nal]G))
7 | 3.2 | C#CCCCCNC(=N)NCCCCCCN1C(=O)[C@@H](Cc2ccc(O)cc2)NC(=O)CNC(=O)[C@H](Cc2ccc3ccccc3c2)NC(=O)[C@H](CCCNC(=N)N)NC(=O)[C@H]1C [US20240293587, Compound P6]
8 | 32.1 | CC(=O)NCCCCCNC(=N)NCCCCCCN1C(=O)[C@@H](Cc2ccc(O)cc2)NC(=O)CNC(=O)[C@H](Cc2ccc3ccccc3c2)NC(=O)[C@H](CCCNC(=N)N)NC(=O)[C@H]1C [US20240293587, Compound P4]
9 | 2.5 | CC(=O)NC(=N)NCCCCCCN1C(=O)[C@@H](Cc2ccc(O)cc2)NC(=O)CNC(=O)[C@H](Cc2ccc3ccccc3c2)NC(=O)[C@H](CCCNC(=N)N)NC(=O)[C@H]1C [US20240293587, Compound P7]
10 | 9.8 | CC(=O)NCCCCCCNC(=N)NCCCCCCN1C(=O)[C@@H](Cc2ccc(O)cc2)NC(=O)CNC(=O)[C@H](Cc2ccc3ccccc3c2)NC(=O)[C@H](CCCNC(=N)N)NC(=O)[C@H]1C [US20240293587, Compound P5]
11 | 2 | C#CCCC(=O)NC(=N)NCCCCCCN1C(=O)[C@@H](Cc2ccc(O)cc2)NC(=O)CNC(=O)[C@H](Cc2ccc3ccccc3c2)NC(=O)[C@H](CCCNC(=N)N)NC(=O)[C@H]1C [US20240293587, Compound P10]
12 | 1.7 | CC(=O)NCCCNC(=N)NCCCCCCN1C(=O)[C@@H](Cc2ccc(O)cc2)NC(=O)CNC(=O)[C@H](Cc2ccc3ccccc3c2)NC(=O)[C@H](CCCNC(=N)N)NC(=O)[C@H]1C [US20240293587, Compound P2]
13 | > 400 | CC(=O)NCCCCCCSC[C@H]1NC(=O)[C@H](Cc2ccc3ccccc3c2)NC(=O)[C@H](CCCNC(=N)N)NC(=O)[C@@H](C)N(CCCCCCNC(=N)N)C(=O)[C@@H](Cc2ccc(O)cc2)NC1=O [US20240293587, Compound Pc3]
14 | 78 | C[C@@H]1C(=O)N[C@@H](CCCNC(=N)N)C(=O)N[C@@H](Cc2ccc3ccccc3c2)C(=O)N[C@H](CSCC(=O)NCc2cccc(CNC(=O)CN3CCN(CC(=O)O)CCN(CC(=O)O)CCN(CC(=O)O)CC3)c2)C(=O)N[C@H](Cc2ccc(O)cc2)C(=O)N1CCCCCCNC(=N)N [US20240293587, Compound Pc5a]

Row | Structure (SMILES) | IC50 [nM]
15 | CC(=O)NCc1cccc(CNC(=O)CSC[C@H]2NC(=O)[C@H](Cc3ccc4ccccc4c3)NC(=O)[C@H](CCCNC(=N)N)NC(=O)[C@@H](C)N(CCCCCCNC(=N)N)C(=O)[C@@H](Cc3ccc(O)cc3)NC2=O)c1 [US20240293587, Compound Pc5] | 14
16 | C[C@@H]1C(=O)N[C@@H](CCCNC(=N)N)C(=O)N[C@@H](Cc2ccc3ccccc3c2)C(=O)NCC(=O)N[C@H](Cc2ccc(O)cc2)C(=O)N1CCCCCCNC(=N)NCCCCCCNC(=O)CCCCCNC(=O)CCCCCNC(=O)CCP(=O)(O)O [US20240293587, Compound P5k] (cyclo([2Nal]G[dY][X1]([Ahx-Ahx-Propanoyl(3-PO3H2)])R)) | 90
17 | C[C@@H]1C(=O)N[C@@H](CCCNC(=N)N)C(=O)N[C@@H](Cc2ccc3ccccc3c2)C(=O)NCC(=O)N[C@H](Cc2ccc(O)cc2)C(=O)N1CCCCCCNC(=N)NCCCCCCNC(=O)COCCOCCNC(=O)COCCOCCNC(=O)CCP(=O)(O)O [US20240293587, Compound P5m] (cyclo([2Nal]G[dY][X1]([AEEA-AEEA-Propanoyl(3-PO3H2)])R)) | 52
18 | CC(=O)NCc1ccc(CNC(=O)CSC[C@H]2NC(=O)[C@H](Cc3ccc4ccccc4c3)NC(=O)[C@H](CCCNC(=N)N)NC(=O)[C@@H](C)N(CCCCCCNC(=N)N)C(=O)[C@@H](Cc3ccc(O)cc3)NC2=O)cc1 [US20240293587, Compound Pc4] | 53

These compounds were tested against C-X-C chemokine receptor type 4 (Mus musculus, UniProt P70658) (assay: Competition Binding Assay).
Chain of C-X-C chemokine receptor type 4 (Mus musculus, UniProt P70658) (P70658 whole entry): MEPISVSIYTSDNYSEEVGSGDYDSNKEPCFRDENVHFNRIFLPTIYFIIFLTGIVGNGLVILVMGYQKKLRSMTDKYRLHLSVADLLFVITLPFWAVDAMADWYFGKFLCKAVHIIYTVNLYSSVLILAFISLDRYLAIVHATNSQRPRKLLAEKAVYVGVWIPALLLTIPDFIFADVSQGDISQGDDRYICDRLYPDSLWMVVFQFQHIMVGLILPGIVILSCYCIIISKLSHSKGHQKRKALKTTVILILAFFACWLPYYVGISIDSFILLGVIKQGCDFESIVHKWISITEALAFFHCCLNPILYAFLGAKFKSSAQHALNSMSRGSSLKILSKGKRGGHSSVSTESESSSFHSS
Experimental: as §1

Row | IC50 [nM] | Structure (SMILES)
19 | 6.2 | C#CCCCCNC(=N)NCCCCCCN1C(=O)[C@@H](Cc2ccc(O)cc2)NC(=O)CNC(=O)[C@H](Cc2ccc3ccccc3c2)NC(=O)[C@H](CCCNC(=N)N)NC(=O)[C@H]1C [US20240293587, Compound P6]
20 | 1.6 | CC(=O)NC(=N)NCCCCCCN1C(=O)[C@@H](Cc2ccc(O)cc2)NC(=O)CNC(=O)[C@H](Cc2ccc3ccccc3c2)NC(=O)[C@H](CCCNC(=N)N)NC(=O)[C@H]1C [US20240293587, Compound P7]
21 | 5.5 | C#CCCC(=O)NC(=N)NCCCCCCN1C(=O)[C@@H](Cc2ccc(O)cc2)NC(=O)CNC(=O)[C@H](Cc2ccc3ccccc3c2)NC(=O)[C@H](CCCNC(=N)N)NC(=O)[C@H]1C [US20240293587, Compound P10]
